In experiment [1] the test system is primary human mesenchymal stem cells (hMSCs). The experiment in a line: Induction of chondrogenesis in primary human mesenchymal stem cells (chondrogenic nodules). Format: cell-based. Conditions: 144 h, 6 days; for EC50: concentration required to induce 50% levels of chondrogenesis of TGF-β3 positive control, read-out: Conc (nM) of 50% TGF-β3 activity; for Emax: nodules, relative to TGF-β3 (10 ng/mL) positive control, read-out: Max. Activity as % TGF-β3 activity. The method, then: Representative compounds were screened using primary human mesenchymal stem cells (hMSCs) to determine their ability to induce chondrogenesis (process by which cartilage is developed).
Primary human mesenchymal stem cells (hMSCs) were purchased from Lonza (Walkersville, Md.) and expanded in Mesenchymal Stem Cell Growth Media (Lonza). Cells between passage 3 and 6 were used for the experiments.
Each compound was dissolved in DMSO as a 10 mM stock and used to prepare compound source plates. Serial dilution (1:3, 6-point dose-response curves from 2700 nM to 10 nM) and compound transfer was performed using the ECHO 550 (Labcyte, Sunnyvale, Calif.) into 96-well clear bottom assay plates (Greiner Bio-One) with appropriate DMSO backfill for a final DMSO concentration of 0.03%. hMSCs were plated at 20,000 cells/well in 250 μL/well Incomplete Chondrogenic Induction Medium (Lonza; DMEM, dexamethasone, ascorbate, insulin-transferrin-selenium [ITS supplement], gentamycin-amphotericin [GA-1000], sodium pyruvate, proline and L-glutamine). TGF-β3 (10 ng/mL) was used as a positive control for differentiation while negative control wells were treated with 75 nL DMSO for normalization and calculating EC50 values. Cells were incubated at 37° C. and 5% CO2 for 6 days. To image chondrogenic nodules, the cells were fixed using 4% formaldehyde (Electron Microscopy Sciences), and stained with 2 μg/mL Rhodamine B (Sigma-Aldrich) and 20 μM Nile Red (Sigma-Aldrich) [Johnson K., et. al, A Stem Cell-Based Approach to Cartilage Repair, Science, (2012), 336(6082), 717-721]. The nodules imaged (4 images per well at 4× magnification) by excitation at 531 nm and emission at 625 nm and quantified using the CellInsight CX5 (Thermo Scientific). Number of nodules in each well was normalized to the average of 3 DMSO treated wells on the same plate using Excel (Microsoft Inc.). The normalized averages (fold change over DMSO) of 3 replicate wells for each compound concentration were calculated. Due to solubility limitations of some of the compounds, curve fitting was incomplete leading to inaccurate EC50 determinations.
Using TGF-β3 as a positive control, the concentration of representative compounds required to induce 50% levels of chondrogenesis is reported. In addition, the maximum activity of each compound and the respective dose that each compound reached maximum chondrogenesis activity is reported.

Experiment [2] deals with primary human fibroblasts derived from IPF patients (LL29 cells) treated with TGF-β1; α-smooth muscle actin (αSMA). The experiment in a line: Inhibition of the fibrotic process: αSMA staining in TGF-β1 treated primary human fibroblasts from IPF patients (LL29 cells). Format: cell-based. The note with it: Fibroblast, 96 h, TGF-β1 20 ng/mL, 4 days; for EC50: % cells positive for αSMA. Summed up: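 Potency reflects suppression of TGF-β1-driven αSMA expression in IPF patient fibroblasts over 4 days. Values are EC50s from normalized αSMA-positive cell counts, with % inhibition at 10 μM when EC50 exceeded 10 μM.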

With `CN(C)CCNc1cc(F)cc(-c2cccc3[nH]c(-c4n[nH]c5cnc(-c6cncc(NC(=O)C(C)(C)C)c6)cc45)cc23)c1` [Compound 456, N-(5-(3-(4-(3-((2-(Dimethylamino)ethyl)amino)-5-fluorophenyl)-1H-indol-2-yl)-1H-pyrazolo[3,4-c]pyridin-5-yl)pyridin-3-yl)pivalamide], in experiment [1], the EC50 was determined as 10 nM and the Emax is 87%. In experiment [2], this compound gave an EC50 of 444 nM.
On to `CN(C)CCNc1cc(F)cc(-c2cccc3[nH]c(-c4n[nH]c5cnc(-c6cncc(CN(C)C)c6)cc45)cc23)c1` [Compound 461, N^1-(3-(2-(5-(5-((Dimethylamino)methyl)pyridin-3-yl)-1H-pyrazolo[3,4-c]pyridin-3-yl)-1H-indol-4-yl)-5-fluorophenyl)-N^2,N^2-dimethylethane-1,2-diamine], for which the Emax in experiment [1] is 52%. The EC50 in experiment [2] was 1180 nM.
`CN(C)CCNc1cc(F)cc(-c2cccc3[nH]c(-c4n[nH]c5cnc(-c6ccccn6)cc45)cc23)c1` [Compound 476, N^1-(3-Fluoro-5-(2-(5-(pyridin-2-yl)-1H-pyrazolo[3,4-c]pyridin-3-yl)-1H-indol-4-yl)phenyl)-N^2,N^2-dimethylethane-1,2-diamine]: in experiment [1], the EC50 was found to be 10 nM and the Emax amounted to 89%. Moreover, the EC50 in experiment [2] is 582 nM.
Taken in the same sequence, the figures for `Cc1ccncc1-c1cc2c(-c3cc4c(-c5cc(F)cc(CNS(C)(=O)=O)c5)cccc4[nH]3)n[nH]c2cn1` [Compound 481, N-(3-Fluoro-5-(2-(5-(4-methylpyridin-3-yl)-1H-pyrazolo[3,4-c]pyridin-3-yl)-1H-indol-4-yl)benzyl)methanesulfonamide] were 900 nM, 152% and 712 nM.
For `CS(=O)(=O)NCc1cc(F)cc(-c2cccc3[nH]c(-c4n[nH]c5cnc(-c6cncnc6)cc45)cc23)c1` [Compound 503, N-(3-Fluoro-5-(2-(5-(pyrimidin-5-yl)-1H-pyrazolo[3,4-c]pyridin-3-yl)-1H-indol-4-yl)benzyl)methanesulfonamide], in experiment [1], the EC50 is 900 nM and the Emax was determined as 102%. Also, the EC50 in experiment [2] is greater than 10000 nM. Besides, the inhibition at 10 µM in experiment [2] (αSMA, 10 μM, read-out: percent inhibition at 10 μM (given for EC50 of >10 μM)) turned out to be 0%.
Take `CN(C)CCOc1cncc(-c2cc3c(-c4cc5c(-c6cccnc6)cccc5[nH]4)n[nH]c3cn2)c1` [Compound 591, N,N-Dimethyl-2-((5-(3-(4-(pyridin-3-yl)-1H-indol-2-yl)-1H-pyrazolo[3,4-c]pyridin-5-yl)pyridin-3-yl)oxy)ethan-1-amine]: in experiment [1], the Emax came to 36%. For the same compound, in experiment [2], the EC50 came out at 2190 nM.
For `Cn1cc(-c2cc3c(-c4cc5c(-c6ccncc6)cccc5[nH]4)n[nH]c3cn2)cn1` [Compound 600, 5-(1-Methyl-1H-pyrazol-4-yl)-3-(4-(pyridin-4-yl)-1H-indol-2-yl)-1H-pyrazolo[3,4-c]pyridine], the EC50 in experiment [1] came out at 300 nM; in experiment [2], 13 nM. Further, the Emax in experiment [1] worked out at 138%.
For `O=C(CC1CCNCC1)Nc1cncc(-c2cc3c(-c4cc5c(-c6ccccn6)cccc5[nH]4)n[nH]c3cn2)c1` [Compound 621, 2-(Piperidin-4-yl)-N-(5-(3-(4-(pyridin-2-yl)-1H-indol-2-yl)-1H-pyrazolo[3,4-c]pyridin-5-yl)pyridin-3-yl)acetamide], in experiment [1], the Emax came to 57%. Further, in experiment [2], the EC50 turned out to be 3140 nM.
As for `CN(C)CCNc1cc(F)cc(-c2cccc3[nH]c(-c4n[nH]c5cnc(-c6cncc(O)c6)cc45)cc23)c1` [Compound 817, 5-(3-(4-(3-((2-(Dimethylamino)ethyl)amino)-5-fluorophenyl)-1H-indol-2-yl)-1H-pyrazolo[3,4-c]pyridin-5-yl)pyridin-3-ol], the results for the EC50 in experiment [1] and in experiment [2] were 10 nM and 519 nM, respectively. The Emax in experiment [1] stood at 66%.

Values taken from patent US10166218B2, “3-(1H-indol-2-yl)-1H-pyrazolo[3,4-C]pyridines and therapeutic uses thereof” (Samumed, LLC, priority 2015, dated 2019).
